Converted amounts (≈) assume the structure as drawn. The source made the active and inactive calls. No cut-off for these calls is given here.
Columns and labels:
Staphylococcus aureus [1] = experiment: Antibacterial activity against methicillin-resistant Staphylococcus aureus MB5395 assessed as inhibition of bacterial growth; type: functional
Enterococcus faecium [2] = experiment: Antibacterial activity against vancomycin B-resistant Enterococcus faecium assessed as inhibition of bacterial growth; type: functional
Enterococcus faecium [3] = experiment: Antibacterial activity against vancomycin A-resistant Enterococcus faecium assessed as inhibition of bacterial growth; type: functional
Staphylococcus aureus [4] = experiment: Antibacterial activity against methicillin-resistant Staphylococcus aureus assessed as inhibition of bacterial growth; type: functional
Acinetobacter baumannii = experiment: Antibacterial activity against Acinetobacter baumannii ATCC19606 assessed as inhibition of bacterial growth; type: functional, organism-based
Aspergillus fumigatus = experiment: Antifungal activity against Aspergillus fumigatus ATCC46645 assessed as inhibition of […] growth; type: functional, organism-based

Row | Compound | MIC95 (Staphylococcus aureus [1]) [µg/mL] | MIC95 (Enterococcus faecium [2]) [µg/mL] | MIC95 (Enterococcus faecium [3]) [µg/mL] | MIC95 (Staphylococcus aureus [4]) [µg/mL] | Activity (Acinetobacter baumannii) | Activity (Aspergillus fumigatus)
1 | CCCCC/C=C/C=C/C(=O)NC[C@@H]1NC(=O)CN2C(=O)[C@H](CNC(=O)[C@@H](Cc3ccc(OC)cc3)NC1=O)NC2(C)C | 4 (≈ 6.7 µM) | 8 (≈ 13.4 µM) | 16 (≈ 26.8 µM) | 16 (≈ 26.8 µM) | inactive | inactive
2 | CCCCC/C=C/C=C/C(=O)NC[C@@H]1NC(=O)CNC(=O)[C@@H](N)CNC(=O)[C@@H](Cc2ccc(OC)cc2)NC1=O |  |  |  | 16 (≈ 28.7 µM) |  | 
